The assay deals with Ubiquitin carboxyl-terminal hydrolase 28 (Homo sapiens) (UniProt Q96RU2). The assay can be described thus: Concentration-response biochemical assay confirming initial hits as inhibitors of ubiquitin-specific protease 28 (AID 1645866). The conditions noted are these: purified USP28, ubiquitin-rhodamine fluorescence, 30 min.

Each structure is given as a SMILES string. pIC50: −log10 of the molar value. Active and inactive are the calls of the source.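 How the source made its calls: active means in confirmatory dose-response testing, peak deubiquitinase inhibition of 30% or more; inactive means the rest.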 Bounds are passed on as bounds.

Chain of Ubiquitin carboxyl-terminal hydrolase 28 (Homo sapiens) (Q96RU2 whole entry, looked up): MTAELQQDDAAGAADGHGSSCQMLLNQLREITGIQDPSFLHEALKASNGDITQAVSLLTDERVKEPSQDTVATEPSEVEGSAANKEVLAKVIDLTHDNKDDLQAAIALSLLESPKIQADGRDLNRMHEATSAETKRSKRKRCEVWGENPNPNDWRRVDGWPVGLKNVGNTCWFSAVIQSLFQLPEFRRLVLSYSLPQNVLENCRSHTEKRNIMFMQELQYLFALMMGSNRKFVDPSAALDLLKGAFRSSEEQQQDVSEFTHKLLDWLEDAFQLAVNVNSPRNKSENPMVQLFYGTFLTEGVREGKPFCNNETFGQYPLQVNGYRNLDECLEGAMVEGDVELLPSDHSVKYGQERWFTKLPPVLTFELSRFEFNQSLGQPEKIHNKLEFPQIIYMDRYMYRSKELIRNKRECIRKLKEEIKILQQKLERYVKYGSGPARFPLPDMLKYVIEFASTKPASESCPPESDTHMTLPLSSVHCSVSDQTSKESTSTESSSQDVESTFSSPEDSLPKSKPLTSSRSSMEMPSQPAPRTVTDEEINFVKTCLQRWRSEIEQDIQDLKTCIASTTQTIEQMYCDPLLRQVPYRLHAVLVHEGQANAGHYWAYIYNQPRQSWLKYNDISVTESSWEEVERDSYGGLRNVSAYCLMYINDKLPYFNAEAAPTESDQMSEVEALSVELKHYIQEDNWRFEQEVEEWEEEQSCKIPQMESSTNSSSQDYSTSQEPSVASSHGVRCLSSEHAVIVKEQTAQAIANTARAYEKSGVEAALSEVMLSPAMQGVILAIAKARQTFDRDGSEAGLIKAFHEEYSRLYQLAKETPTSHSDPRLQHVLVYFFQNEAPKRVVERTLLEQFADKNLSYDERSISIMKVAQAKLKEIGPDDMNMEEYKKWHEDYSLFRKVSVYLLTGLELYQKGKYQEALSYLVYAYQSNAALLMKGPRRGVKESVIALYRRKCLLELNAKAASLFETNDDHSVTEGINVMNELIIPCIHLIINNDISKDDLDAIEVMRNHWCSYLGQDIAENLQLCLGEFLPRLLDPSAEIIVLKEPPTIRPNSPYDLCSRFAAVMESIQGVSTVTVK

On to `CCOc1ccccc1NC(=O)Cn1ccn2nc(-c3ccc(OC)cc3)cc2c1=O`, for which the pIC50 is 4.78.
On to `CC(C)c1cc(Nc2cccc(F)c2)n2nc(-c3cccnc3)nc2n1`, for which the pIC50 is 4.61.
For `COc1ccc(-n2c(SCC(=O)c3ccc(F)cc3)nnc2-c2cccnc2)cc1`, the pIC50 is 4.73.
`O=C(CSc1cn(Cc2ccccc2)c2ccccc12)Nc1ccc2c(c1)OCCO2`: the pIC50 is 4.76.
Still for that read-out and setting: under `Cn1c(COc2ccccc2)nnc1SCC(=O)Nc1ccc(N2CCOCC2)cc1` stands 5.61.
As for `CCCCc1nc2sc3c(SCC(=O)NCc4ccccc4)ncnc3c2c2c1CCC2`, the pIC50 was 4.41.
Turning to `Cc1cc(C)c2c(-n3cccc3)c(C(=O)NCCc3ccc(S(N)(=O)=O)cc3)sc2n1`, the pIC50 is 5.59.
Turning to `O=C1N(Cc2cccc(Cl)c2)CCN1c1ccc2c(c1)CCC2`, the pIC50 is 4.74.
Take `COc1ccc(NC(=O)CSc2nc(N)c3c4c(sc3n2)COC(C)(C)C4)cc1`: the pIC50 is 4.34.
For `COc1ccc(-n2c(=O)c(CCC(=O)O)nc3ccccc32)cc1`, the IC50 is > 50 µM (inactive).
For the compound `COc1ccccc1NS(=O)(=O)c1ccc2oc(SCC(=O)c3ccccc3)nc2c1`, the IC50 was > 50 µM (inactive).
As for `Cc1ccc(NC(=O)Cn2c(Nc3cccc(C)c3)nc(C)cc2=O)cc1`, the pIC50 is 4.60.
For `Cn1c(=O)[nH]c(=O)c2c1nc1n(CCc3ccccc3)c(-c3ccccc3)cn21`, the pIC50 was 4.37.
Consider `O=C(CCn1c(=O)c2sccc2n(CC(=O)OCc2ccccc2)c1=O)NCc1ccc2c(c1)OCO2`, for which the pIC50 is 4.74.
For `N#Cc1ccc(COC(=O)c2ccc3ccccc3n2)cc1`, the pIC50 was 5.44.
Take `CN(CCc1ccccc1)c1nccc(N2CCN(C(=O)c3csc(-c4cccnc4)n3)CC2)n1`: the IC50 was > 50 µM (inactive).
Turning to `COc1ccc(NC(=O)C2CCN(c3cncnc3N(C)C)CC2)cc1OC`, the pIC50 is 5.17.
Regarding `Cc1c(-c2ccc(C#N)cc2)oc2ccc(Br)cc2c1=O`, the pIC50 is 5.74.
With `O=C(Nc1ccc2c(c1)OCCO2)Nc1nnc(CC(=O)N2CCCCC2)s1`, the pIC50 is 4.69.
Consider `O=C(Cn1cnc2c(oc3ccccc32)c1=O)NCc1ccccc1Cl`, for which the pIC50 is 4.65.
As for `CC(=O)N1CCc2cc(S(=O)(=O)NCc3ccc(C)cc3)ccc21`, the IC50 was > 50 µM (inactive).
In the case of `O=C(COc1ccc2oc3c(c2c1)CCCC3)Nc1ccccn1`, the pIC50 was 4.60.
In the case of `COCCCNC(=O)c1ccc(Cn2c(=O)c3ccccc3n(CC(=O)Nc3ccc(OC)cc3)c2=O)cc1`, the pIC50 is 4.70.
On to `O=C(CCCn1c(=O)[nH]c2cc(Cl)ccc2c1=O)N1CCc2ccccc2C1`, for which the pIC50 is 4.71.
The same measure, in the same setting: the result for `O=C1c2c(O)cccc2C2(Oc3cccc4cccc(c34)O2)C2OC12` (stereo not drawn) reads 4.70; that for `O=C1CC(C(=O)Nc2ccccc2F)n2nc(-c3ccccc3)cc2N1` (stereo not drawn), 4.66.
On to `O=C(Nc1cccc2ccccc12)C1CCCN(S(=O)(=O)Cc2ccccc2)C1` (stereo not drawn), for which the pIC50 is 4.73.
The same measure, in the same setting: under `N#Cc1ccc(NC(=O)Nc2cccn(Cc3ccccc3Br)c2=O)cc1` stands 5.36.
`O=C(O)c1nccnc1C(=O)N1CCc2ccccc2C1`: the IC50 is > 50 µM (inactive).
Regarding `CC(C)(C)c1cc(CCC(=O)Nc2c3c(nc4c2CCC4)CCCC3)cc(C(C)(C)C)c1O`, the IC50 is > 50 µM (inactive).
As to `Cc1c(CC(=O)N2CCN(c3ncccn3)CC2)c(=O)oc2cc(O)ccc12`, the pIC50 was 4.64.
As for `Cc1cccc(Cl)c1NC(=O)Nc1ccc(NC(=O)c2ccccc2O)cc1`, the pIC50 was 4.57.
Turning to `COc1ccccc1CNC(=O)C1CCCN(c2nc3ccsc3c(=O)s2)C1` (stereo not drawn), the pIC50 was 5.04.
For `CC1CCCCN1c1nc(F)c2c(c1F)S(=O)(=O)CCN2Cc1ccccc1` (stereo not drawn), the IC50 was > 50 µM (inactive).
Regarding `Cc1cc(C)n(-c2cccc(C(=O)Nc3ccc4c(c3)CCN4S(C)(=O)=O)c2)n1`, the pIC50 was 5.43.
With `Cc1cc(C)c2nc3c(cc2c1)CN(Cc1ccco1)C(=O)O3`, the IC50 is > 50 µM (inactive).
`CCCC(=O)N1CCC2(CC1)Nc1ccccc1NC2=O`: the IC50 was > 50 µM (inactive).
As to `O=C(Cn1c(=O)nc(-c2ccccc2)c2ccccc21)NCc1ccc2c(c1)OCO2`, the pIC50 was 4.55.
`N#Cc1ccc(NC(=O)c2ccc(S(=O)(=O)N3CCCCC3)cc2)cc1`: the pIC50 is 4.56.
Turning to `COc1ccc(OC)c(-c2c(C#N)c(C)nc3c2N2CCC3CC2)c1`, the pIC50 is 5.74.
For the compound `O=c1[nH]c(-c2ccccn2)nc2c1CCN(Cc1cnn(-c3ccccc3)c1)C2`, the IC50 was > 50 µM (inactive).
For `CNC(=O)c1cc2c(=O)n3cccc(C)c3nc2n1Cc1ccccc1`, the pIC50 is 4.73.
For the compound `O=C(CN1C(=O)C2CCCC2=Nc2ccccc21)Nc1cc(F)ccc1F` (stereo not drawn), the pIC50 was 4.87.
As to `O=C(NCc1ccc2c(c1)OCO2)c1nn(C23CC4CC(CC(C4)C2)C3)cc1[N+](=O)[O-]`, the IC50 is > 50 µM (inactive).
Turning to `COc1cc(Cl)ccc1Nc1ncc(C(=O)Nc2cc(OC)c(OC)c(OC)c2)c2ccccc12`, the pIC50 was above 7.30.
Regarding `Cc1ccc2c(c1)N(C)C(=O)c1cc(NC(=O)c3ccc(F)cc3)ccc1O2`, the pIC50 was 5.38.
Turning to `CCc1ccc(NC(=O)CN=C2NS(=O)(=O)C(c3ccc(CC)cc3)=C2C)cc1`, the pIC50 is 4.66.
The same measure, in the same setting: the result for `COc1ccc(-c2cc(-c3ccc(F)cc3)[nH]c(=O)c2C#N)cc1` reads 4.66; that for `COc1cc2c(c(OCC(=O)Nc3ccc4c(c3)OCCO4)c1)C(=O)O[C@@H](C)CCCC(=O)CCCCC2`, 4.68.
As for `O=C(Nc1ccccc1Br)c1ccn(COc2ccccc2F)n1`, the pIC50 was 4.74.
As to `O=C(CN1C(=O)c2ccccc2Sc2ccc(C(=O)N3CCCC3)cc21)Nc1ccccc1Cl`, the pIC50 was 4.53.
In the case of `CC(C)c1ccc(NC(=O)c2cc3ncc(Br)cn3n2)cc1`, the pIC50 is 5.29.
As to `Cc1ccccc1NC(=O)c1cc(S(=O)(=O)N2CCCCCC2)ccc1Cl`, the pIC50 was 4.59.
On the same count and under the same terms, under `O=C(NCc1ccccc1Cl)c1ccc(-c2nnc(-c3ccccc3)o2)cc1` stands 5.67.
For `COc1ccc(CCNC(=O)c2c(N)n(-c3cccc(Cl)c3)c3nc4ccccc4nc23)cc1`, the IC50 is > 50 µM (inactive).
For the compound `Cc1ccccc1NC(=O)C(C)n1c(=O)cc(-c2ccccc2)c2c(C)nn(C)c21` (stereo not drawn), the pIC50 is 5.11.
As to `Cc1ccc(NC(=O)CNC(=O)c2cc3ccccc3o2)cc1`, the pIC50 was 4.67.
Consider `COc1ccc(NC(=O)CC(=O)c2ccc([N+](=O)[O-])cc2)cc1S(=O)(=O)Nc1ccc(Br)cc1`, for which the pIC50 was 4.55.
Take `COc1ccc2c(c1)CCc1c(C(=O)NCc3cccnc3)noc1-2`: the pIC50 is 4.69.
For `Cc1ccc(C(=O)NCc2ccc(C(=O)Nc3cccc(C)c3)o2)cc1`, the pIC50 is 4.55.
As to `O=C(Nc1ccc(N2CCOCC2)cc1)c1ccc(-c2ccc(N3CCCC3)nn2)cc1`, the IC50 is > 50 µM (inactive).
As for `O=C(NCc1ccc(-c2nc3cnccc3o2)cc1)c1ccccc1F`, the pIC50 was 4.82.
For `O=C(COc1ncnc2ccccc12)Nc1ccc2c(c1)OC1(CCCC1)O2`, the pIC50 was 4.62.
For `Cc1ccccc1C(=O)OCCN1C(=O)c2cccc3c(N4CCOCC4)ccc(c23)C1=O`, the IC50 is > 50 µM (inactive).
Turning to `O=C(NCCN1CCCC1)C1CCN(c2cnc(N3CCCCC3)nc2)CC1`, the pIC50 was above 7.30.
Still for that read-out and setting: the result for `O=C(COc1ccc2c(c1)CCC2)Nc1ccc2c(c1)CCC2` reads 4.42.
For `COCCNC(=O)c1ccnn1-c1ccc2ccc(-c3cccnc3)cn12`, the IC50 is > 50 µM (inactive).
In the case of `COc1ccc(-c2cc3nc([C@H](C)NC(=O)Cc4ccccc4C)nn3cn2)cc1`, the pIC50 is 5.58.
Consider `Cc1cnnn1-c1ccc(C(=O)Nc2cc(Cl)ccc2Cl)cc1`, for which the pIC50 is 4.36.
Regarding `c1ccc(-c2nc(-c3nnn(-c4ccccc4)c3-c3ccncc3)no2)cc1`, the pIC50 is 4.90.
With `COc1ccc(C(C(=O)NC2CCCCC2)N(C(=O)CCCC(=O)Nc2ccccn2)c2ccccc2C)cc1` (stereo not drawn), the pIC50 was 4.77.
Consider `COc1ccc(CNC(=O)C(C)n2nc(-c3ccco3)c(-c3cc(C)no3)cc2=O)cc1` (stereo not drawn), for which the pIC50 was 4.58.
Regarding `COc1cc(C(=O)NC(Cc2ccccc2)c2nc3ccccc3[nH]2)cc(OC)c1OC` (stereo not drawn), the pIC50 was 5.42.
For the compound `COc1c2nc3ccccc3oc-2cc(=O)c1OC`, the IC50 is > 50 µM (inactive).
For the compound `O=C(NCc1ccccc1Cl)c1ccc2cn[nH]c2c1`, the pIC50 is 5.00.
As for `O=C1CC(C(=O)Nc2ccccc2Cl)n2nc(-c3ccccc3)cc2N1` (stereo not drawn), the pIC50 is 4.71.
Regarding `Cc1ccccc1C(=O)NCCn1cc(SCC(=O)Nc2ccc3c(c2)OCCO3)c2ccccc21`, the pIC50 was 4.45.
For the compound `CCCc1nc2sc3c(NCc4ccco4)ncnc3c2c2c1CCC2`, the pIC50 was above 7.30.
Consider `CCOc1ccc(CCNC(=O)c2ccc3c(c2)N(CC)C(=O)c2ccccc2S3)cc1OCC`, for which the pIC50 is 5.72.
Turning to `Cc1cccc(C(=O)Nc2ccc3c(c2)nc(CSc2nccc(C)n2)n3C)c1`, the pIC50 was above 7.30.
With `O=C(CSc1nc2cc(C(F)(F)F)ccc2s1)NCC(=O)c1ccccc1`, the pIC50 is 5.19.
Consider `CN(C)c1ccc(/C=N/NC(=O)c2ccc(Cl)cc2)cc1`, for which the pIC50 was 4.78.
Turning to `Cc1nc(-c2ccccc2F)sc1C(=O)Nc1cccnc1`, the pIC50 was 4.57.
In the case of `O=c1c2cnc(N3CCOCC3)nc2ccn1CCc1ccccc1`, the pIC50 is 4.82.
For `O=C(NCc1ccccc1)Nc1cccc2ccccc12`, the pIC50 was 4.53.
As for `COc1ccc(NC(=O)C2Oc3ccc(C)cc3NC2=O)cc1Cl` (stereo not drawn), the pIC50 was 4.71.
`CSc1ccc(CNCc2c(C(=O)O)n(Cc3ccccc3)c3cc(C)ccc23)cc1`: the IC50 is > 5 µM (inactive).
With `Cc1cc(C(=O)Nc2cc(C)n(Cc3ccc(Cl)cc3)n2)no1`, the pIC50 is 4.87.
As to `CCc1noc(Cn2cnc3c4ccccc4n(CC(=O)NC4CCCCC4)c3c2=O)n1`, the pIC50 was 4.40.
Take `CCOC(=O)c1cc2c(ccn2C)n1CC(=O)N1CCC(C)CC1`: the IC50 is > 50 µM (inactive).
`COc1ccc(C(=O)Nc2ccc(S(=O)(=O)N3CCCCC3)cc2)cc1`: the pIC50 was 4.76.
For the compound `Cc1nn(CC(=O)NCc2ccccc2F)c2ccccc12`, the IC50 was > 50 µM (inactive).
Same read-out and setting: the result for `CC(=O)Nc1ccc([C@H]2OCC(=O)N(C3CCOCC3)[C@@H]2CO)cc1` reads > 50 µM (inactive).

The record behind these values is PubChem BioAssay AID1645866 (Buhrlage Lab, Dana-Farber Cancer Institute and Novartis …, 2021).
